Laboratory results taken from ChEMBL document CHEMBL4304811, “Development of a Water-Soluble Indolylmaleimide Derivative IM-93 Showing Dual Inhibition of Ferroptosis and NETosis” (ACS Med Chem Lett, 2019).
The source made the active and inactive calls. The calls are words filed in the database; no cut-off is given here.

How the values were obtained:
[1] = target: Dual specificity tyrosine-phosphorylation-regulated kinase 2 (Homo sapiens) (UniProt Q92630); assay: Binding affinity to wild-type human full length DYRK2 (M1 to S528 residues) expressed in mammalian expression system assessed as residual binding level at 10 uM by Kinomescan method relative to control
[2] = tested on: Receptor-type tyrosine-protein kinase FLT3 (Homo sapiens), P36888 [K663Q]; assay: Binding affinity to human partial length FLT3 K663Q mutant (V592 to Y969 residues) expressed in bacterial expression system assessed as residual binding level at 10 uM by Kinomescan method relative to control
[3] = target: Mitogen-activated protein kinase kinase kinase kinase 3 (Homo sapiens) (UniProt Q8IVH8); assay: Binding affinity to wild-type human partial length MAP4K3 (M1 to D301 residues) expressed in bacterial expression system assessed as residual binding level at 10 uM by Kinomescan method relative to control
[4] = target: Mitogen-activated protein kinase 1 (Homo sapiens) (UniProt P28482); assay: Binding affinity to wild-type human full length ERK2 (M1 to S360 residues) expressed in bacterial expression system assessed as residual binding level at 10 uM by Kinomescan method relative to control
[5] = target: Cytoplasmic tyrosine-protein kinase BMX (Homo sapiens) (UniProt P51813); assay: Binding affinity to wild-type human full length BMX (M1 to H675 residues) expressed in bacterial expression system assessed as residual binding level at 10 uM by Kinomescan method relative to control
Neutrophil [6] = assay: Inhibition of PMA-induced NETosis in human neutrophils assessed as reduction in lipid peroxidation at 20 uM preincubated for 30 mins followed by PMA stimulation measured after 30 mins by C11-Bodipy fluorescent dye based flow cytometry
[7] = target: Calcium/calmodulin-dependent protein kinase kinase 2 (Homo sapiens) (UniProt Q96RR4); assay: Binding affinity to wild-type human partial length CAMKK2 (D65 to V471 residues) expressed in bacterial expression system assessed as residual binding level at 10 uM by Kinomescan method relative to control
[8] = target: Casein kinase II subunit alpha' (Homo sapiens) (UniProt P19784); assay: Binding affinity to wild-type human full length CSNK2A2 (M1 to R350 residues) expressed in mammalian expression system assessed as residual binding level at 10 uM by Kinomescan method relative to control
[9] = target: Tyrosine-protein kinase Fer (Homo sapiens) (UniProt P16591); assay: Binding affinity to wild-type human partial length FER (S542 to T822 residues) expressed in bacterial expression system assessed as residual binding level at 10 uM by Kinomescan method relative to control
[10] = target: Peripheral plasma membrane protein CASK (Homo sapiens) (UniProt O14936); assay: Binding affinity to wild-type human partial length CASK (M1 to H315 residues) expressed in mammalian expression system assessed as residual binding level at 10 uM by Kinomescan method relative to control
[11] = target: Serine/threonine-protein kinase SIK3 (Homo sapiens) (UniProt Q9Y2K2); assay: Binding affinity to wild-type human partial length QSK (A90 to L395 residues) expressed in mammalian expression system assessed as residual binding level at 10 uM by Kinomescan method relative to control
[12] = tested on: Epidermal growth factor receptor (Homo sapiens), P00533 [L858R,T790M]; assay: Binding affinity to human partial length EGFR L858R/T790M double mutant (R669 to V1011 residues) expressed in mammalian expression system assessed as residual binding level at 10 uM by Kinomescan method relative to control
[13] = tested on: ALK tyrosine kinase receptor (Homo sapiens), Q9UM73 [C1156Y]; assay: Binding affinity to […] human partial length ALK C1156Y mutant (I1088 to E1409 residues) expressed in mammalian expression system assessed as residual binding level at 10 uM by Kinomescan method relative to control
[14] = target: STE20/SPS1-related proline-alanine-rich protein kinase (Homo sapiens) (UniProt Q9UEW8); assay: Binding affinity to wild-type human partial length STK39 (P43 to I357 residues) expressed in mammalian expression system assessed as residual binding level at 10 uM by Kinomescan method relative to control
[15] = target: Serine/threonine-protein kinase ICK (Homo sapiens) (UniProt Q9UPZ9); assay: Binding affinity to wild-type human partial length ICK (M1 to P314 residues) expressed in mammalian expression system assessed as residual binding level at 10 uM by Kinomescan method relative to control
[16] = target: cAMP-dependent protein kinase catalytic subunit PRKX (Homo sapiens) (UniProt P51817); assay: Binding affinity to wild-type human partial length PRKX (M1 to F358 residues) expressed in bacterial expression system assessed as residual binding level at 10 uM by Kinomescan method relative to control
[17] = tested on: Mast/stem cell growth factor receptor Kit (Homo sapiens), P10721 [V559D]; assay: Binding affinity to human partial length KIT V559D mutant (Y545 to D952 residues) expressed in bacterial expression system assessed as residual binding level at 10 uM by Kinomescan method relative to control
[18] = target: Mitogen-activated protein kinase 14 (Homo sapiens) (UniProt Q16539); assay: Binding affinity to wild-type human full length p38-alpha (M1 to S360 residues) expressed in bacterial expression system assessed as residual binding level at 10 uM by Kinomescan method relative to control
[19] = target: Mitogen-activated protein kinase 11 (Homo sapiens) (UniProt Q15759); assay: Binding affinity to wild-type human full length p38-beta (M1 to Q364 residues) expressed in bacterial expression system assessed as residual binding level at 10 uM by Kinomescan method relative to control
[20] = target: Ribosomal protein S6 kinase alpha-2 (Homo sapiens) (UniProt Q15349); assay: Binding affinity to wild-type human partial length N- terminal RSK3 kinase domain 1 (M1 to Q385 residues) expressed in bacterial expression system assessed as residual binding level at 10 uM by Kinomescan method relative to control
[21] = target: Serine/threonine-protein kinase NLK (Homo sapiens) (UniProt Q9UBE8); assay: Binding affinity to wild-type human full length NLK (M13 to E527 residues) expressed in bacterial expression system assessed as residual binding level at 10 uM by Kinomescan method relative to control
[22] = target: Serine/threonine-protein kinase pim-3 (Homo sapiens) (UniProt Q86V86); assay: Binding affinity to wild-type human partial length PIM3 (G16 to A317 residues) expressed in bacterial expression system assessed as residual binding level at 10 uM by Kinomescan method relative to control
[23] = target: Calcium-dependent protein kinase 1 (Plasmodium falciparum) (UniProt P62344); assay: Binding affinity to wild-type Plasmodium falciparum full length CDPK1 (M1 to S524 residues) expressed in mammalian expression system assessed as residual binding level at 10 uM by Kinomescan method relative to control
Neutrophil [24] = assay: Inhibition of PMA-induced NETosis in human neutrophils assessed as inhibition of ROS production at 25 uM pretreated for 25 mins followed by PMA stimulation and measured after 20 mins by DCFH-DA based flow cytometry; assay type: functional, cell-based

In the case of CC(C)N1C(=O)C(NCCCN(C)C)=C(c2cn(C)c3ccccc23)C1=O.Cl, the Activity [1] is reported as 87%, the Activity [2] is reported as 97% and the Activity [3] is reported as 96%. For the same compound, the Activity [4] was 95%, the Activity [5] was 97% and the inhibition (Neutrophil [6]) was “Active”. For the same compound, the Activity [7] was 69%, the Activity [8] was 78% and the Activity [9] was 97%. It also gave an Activity [10] of 92%, an Activity [11] of 93% and an Activity [12] of 100%. The Activity [13] was 90%, the Activity [14] was 98% and the Activity [15] was 81%. It also gave an Activity [16] of 88%, an Activity [17] of 96% and an Activity [18] of 100%. It also gave an Activity [19] of 96%, an Activity [20] of 100% and an Activity [21] of 94%. For the same compound, the Activity [22] was 98%, the Activity [23] was 81% and the inhibition (Neutrophil [24]) was “inactive”.
